Assay results as given in patent US20230114241A1, “METHODS OF TREATING EPILEPSY USING THE SAME” (Trevena, Inc., priority 2019, published 2023).

How the values were obtained:
[1] = molecular target: T1, human sphingosine-1-phosphate receptor 1 (S1P1) (Homo sapiens, UniProt P21453); experiment: Inhibition of cAMP production (HTRF cAMP HiRange), S1P1 CHO-K1 cells; type: cell-based; conditions: for Emax: CHO-K1, efficacy normalized to maximum efficacy of fingolimod, read-out: hS1P1 CAMP SPAN; for EC50: read-out: hS1P1 CAMP pEC50 (converted)
How it was run: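 Intracellular cAMP changes read by TR-FRET (HTRF HiRange, 1 h room temperature) after 30 min compound exposure at 37 °C. Cells: overnight-plated CHO-K1 stably expressing tagged human S1P1 with EA-β-arrestin2. Responses normalized to fingolimod.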
Target sequence in this assay (P21453 whole entry): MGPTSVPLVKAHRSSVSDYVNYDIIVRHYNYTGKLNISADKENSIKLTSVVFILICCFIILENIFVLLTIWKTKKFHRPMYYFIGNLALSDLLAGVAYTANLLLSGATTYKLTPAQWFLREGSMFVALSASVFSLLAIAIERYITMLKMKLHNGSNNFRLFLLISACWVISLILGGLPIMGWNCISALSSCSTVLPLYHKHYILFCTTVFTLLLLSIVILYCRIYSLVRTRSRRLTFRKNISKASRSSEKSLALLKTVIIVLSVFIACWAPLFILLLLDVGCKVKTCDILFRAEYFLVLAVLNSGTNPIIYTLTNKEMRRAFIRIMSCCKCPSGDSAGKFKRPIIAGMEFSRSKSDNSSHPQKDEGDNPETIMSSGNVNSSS

[2] = molecular target: T1, human sphingosine-1-phosphate receptor 1 (S1P1); experiment: β-Arrestin2 recruitment assay (PathHunter), S1P1 CHO-K1 cells; type: cell-based; conditions: for Emax: efficacy normalized to maximum efficacy of fingolimod, read-out: hS1P1 B-arrestin2 SPAN; for EC50: β-arrestin2 recruitment, read-out: hS1P1 B-arrestin2 pEC50 (converted)
Protocol: Stable clonal Chinese hamster ovary K1 (CHO-K1) cells co-expressing EA-β-arrestin2 and the human sphingosine-1-phosphate receptor 1 (NM_001400, S1P1) with a C-terminal Prolink™ tag were purchased from DiscoverX corporation (Cat #: 93-0207C2).
Cell lines were cultured in AssayComplete™ Media 6 (DiscoverX Corporation, Cat #: 920018GF2) at 37° C. and 5% CO2 in a humidified CO2 and temperature-controlled incubator. To begin assay plating, cells were washed with Dulbecco's phosphate buffered saline (CellGro, Cat #: 21-031-CV) and lifted from the culturing flask by incubation (37° C., 5 min) with CellStripper (Cellgro, Cat #: 25-056-CI). […] Plated cells were incubated overnight at 37° C. and 5% CO2 in a humidified CO2 and temperature-controlled incubator.
Agonist-promoted β-arrestin2 recruitment to the sphingosine-1-phosphate 1 receptor was determined using the β-arrestin PathHunter® Detection kit (DiscoverX Corporation, Cat #: 93-0001). […] In cells that stably express these fusion proteins, stimulation with a cognate agonist results in the interaction of β-arrestin2 and the Prolink™-tagged GPCR. This allows the complementation of the two β-galactosidase fragments and results in the formation of a functional enzyme with β-galactosidase activity. […] Following a 60 minute incubation at 37° C. and 5% CO2 in a humidified CO2 and temperature-controlled incubator, the components of the β-arrestin PathHunter® Detection kit were added as per the manufacturer's instructions. After an hour incubation at room temperature, plates were analyzed by a BMG PheraStar microplate reader.
These values are normalized to fingolimod, a known agonist of the sphingosine-1-phosphate 1 receptor.
Target sequence in this assay (P21453 whole entry): as above
Target sequence in this assay (P32121 whole entry partner): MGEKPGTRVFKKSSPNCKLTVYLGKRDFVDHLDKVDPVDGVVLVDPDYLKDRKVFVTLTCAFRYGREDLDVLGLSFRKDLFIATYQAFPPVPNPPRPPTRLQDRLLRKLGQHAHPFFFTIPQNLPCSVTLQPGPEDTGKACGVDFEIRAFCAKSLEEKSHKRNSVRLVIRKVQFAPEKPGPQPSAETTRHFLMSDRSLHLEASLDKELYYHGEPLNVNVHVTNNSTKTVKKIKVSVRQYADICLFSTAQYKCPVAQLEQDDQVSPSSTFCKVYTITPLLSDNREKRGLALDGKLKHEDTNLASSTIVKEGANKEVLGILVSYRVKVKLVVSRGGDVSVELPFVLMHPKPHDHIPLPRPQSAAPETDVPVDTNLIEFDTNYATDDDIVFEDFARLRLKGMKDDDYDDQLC

[3] = inhibition of cAMP production, S1P1
[4] = inhibition of cAMP production, potency
[5] = CHO-K1, β-arrestin2 recruitment

Row | SMILES | Emax [1] [%] | EC50 [1, 3] [nM] | Emax ([2]; CHO-K1) [%] | EC50 ([2]; S1P1) [nM] | Emax ([1]; inhibition of cAMP production) [%] | EC50 [1, 4] [nM] | Emax [2, 5] [%] | EC50 ([2]; potency) [nM]
1 | CC(C)n1ccc2cc(-c3nc(-c4ccccc4F)ns3)ccc21 [Compound 374, 5-[3-(2-fluorophenyl)-1,2,4-thiadiazol-5-yl]-1-(propan-2-yl)-1H-indole] | < 75 | > 316 | < 75 | > 10000 |  |  |  | 
2 | CCC1(CC)CC(=O)c2cc(-c3nc(-c4ccc(S(=O)(=O)NC)cc4)no3)ccc2O1 [Compound 266, 4-(5-(2,2-diethyl-4-oxochroman-6-yl)-1,2,4-oxadiazol-3-yl)-N-methylbenzene-sulfonamide] |  |  |  |  | > 75 | > 316 | > 75 | < 10000
3 | Cc1ccccc1C(C)c1noc(-c2ccc3c(c2)nnn3CC(C)C)n1 (stereo not shown) [Compound 154, 5-{3-[1-(2-methyl-phenyl)ethyl]-1,2,4-oxadiazol-5-yl}-1-(2-methylpropyl)-1H-1,2,3-benzotriazole] |  |  |  |  | < 75 | > 316 | < 75 | > 10000
4 | CC(C)n1nnc2cc(-c3nsc(-c4ccccc4O)n3)ccc21 [Compound 112, 2-{3-[1-(propan-2-yl)-1H-1,2,3-benzotriazol-5-yl]-1,2,4-thiadiazol-5-yl}phenol] |  |  |  |  | > 75 | < 316 | > 75 | < 10000
5 | Cc1ccccc1-c1csc(-c2ccc3c(ccn3C(C)C)n2)n1 [Compound 409, 2-(1-isopropyl-pyrrolo [3,2-b]pyridin-5-yl)-4-(o-tolyl)thiazole] | > 75 | > 316 | < 75 | > 10000 |  |  |  | 
6 | COc1cccc(-c2nc(-c3ccc4c(ccn4C(C)C)c3)ns2)c1 [Compound 366, 5-[5-(3-methoxyphenyl)-1,2,4-thiadiazol-3-yl]-1-(propan-2-yl)-1H-indole] |  |  |  |  | < 75 | > 316 | < 75 | > 10000
7 | COc1ccccc1-c1noc(-c2ccc3c(c2)NC(=O)CN3)n1 [Compound 614, 7-[3-(2-methoxyphenyl)-1,2,4-oxadiazol-5-yl]-1,2,3,4-tetrahydro-quinoxalin-2-one] | > 75 | > 316 | < 75 | > 10000 |  |  |  | 
8 | CC(C)n1nnc2cc(-c3noc(-c4cccc5c4CCC5O)n3)ccc21 (stereo not shown) [Compound 636, 4-{3-[1-(propan-2-yl)-1H-1,2,3-benzotriazol-5-yl]-1,2,4-oxadiazol-5-yl}-2,3-dihydro-1H-inden-1-ol] | > 75 | < 316 | > 75 | < 10000 |  |  |  | 
9 | CC(C)n1nnc2cc(-c3noc(C45CC6CC(CC(C6)C4)C5)n3)ccc21 [Compound 200, 5-[5-(adamantan-1-yl)-1,2,4-oxadiazol-3-yl]-1-(propan-2-yl)-1H-1,2,3-benzotriazole] |  |  |  |  | < 75 | > 316 | < 75 | > 10000
10 | O=C1CC2(CCOCC2)Oc2ccc(-c3nc(-c4ccncc4)no3)cc21 [Compound 148, 6-[3-(pyridin-4-yl)-1,2,4-oxadiazol-5-yl]-3,4-dihydrospiro [1-benzopyran-2,4′-oxane]-4-one] |  |  |  |  | < 75 | > 316 | < 75 | > 10000
11 | CCC1(CC)CC(=O)c2cc(-c3nc(-c4cccc(O)c4)no3)ccc2O1 [Compound 227, 2,2-diethyl-6-[3-(3-hydroxyphenyl)-1,2,4-oxadiazol-5-yl]chroman-4-one] |  |  |  |  | < 75 | < 316 | > 75 | > 10000
12 | CCC1(CC)CC(=O)c2cc(-c3nc(-c4ccnc(S(N)(=O)=O)c4)no3)ccc2O1 [Compound 616, 4-(5-(2,2-diethyl-4-oxochroman-6-yl)-1,2,4-oxadiazol-3-yl)pyridine-2-sulfonamide] | > 75 | < 316 | > 75 | < 10000 |  |  |  | 
13 | CCC1(CC)CC(=O)c2cc(-c3nc(-c4cccnc4C(F)(F)F)no3)ccc2O1 [Compound 562, 2,2-diethyl-6-(3-(2-(trifluoromethyl)pyridin-3-yl)-1,2,4-oxadiazol-5-yl)chroman-4-one] | > 75 | < 316 | > 75 | < 10000 |  |  |  | 
14 | CC(C)n1nnc2cc(-c3nc(-c4ccccc4Br)no3)cnc21 [Compound 413, 3-(2-bromophenyl)-5-[3-(propan-2-yl)-3H-[1,2,3]triazolo[4,5-b]pyridin-6-yl]-1,2,4-oxadiazole] | < 75 | < 316 | > 75 | < 10000 |  |  |  | 
15 | CC(C)n1ccc2cc(-c3nc(-c4ccccc4F)cs3)cnc21 [Compound 402, 4-(2-fluorophenyl)-2-(1-isopropyl-1H-pyrrolo[2,3-b]pyridin-5-yl)thiazole] | < 75 | < 316 | < 75 | > 10000 |  |  |  | 
16 | CCC1(CC)CC(=O)c2cc(-c3nc(-c4ccncc4F)no3)ccc2O1 [Compound 226, 2,2-diethyl-6-(3-(3-fluoropyridin-4-yl)-1,2,4-oxadiazol-5-yl)chroman-4-one] |  |  |  |  | > 75 | > 316 | > 75 | > 10000
17 | CC(C)Oc1ccc(-c2nc(-c3ccc4c(c3)nnn4C(C)C)no2)cc1C(F)(F)F [Compound 246, 5-(4-isopropoxy-3-(trifluoromethyl)phenyl)-3-(1-isopropyl-1H-benzo[d][1,2,3]triazol-5-yl)-1,2,4-oxadiazole] |  |  |  |  | > 75 | < 316 | > 75 | < 10000
18 | CCC1(CC)CC(=O)c2cc(-c3nc(-c4ccc(C)s4)no3)ccc2O1 [Compound 34, 2,2-diethyl-6-(3-(5-methylthiophen-2-yl)-1,2,4-oxadiazol-5-yl)chroman-4-one] |  |  |  |  | > 75 | > 316 | < 75 | < 10000
19 | CCC1(CC)CC(=O)c2cc(-c3nc(-c4cnccn4)no3)ccc2O1 [Compound 617, 2,2-diethyl-6-(3-(pyrazin-2-yl)-1,2,4-oxadiazol-5-yl)chroman-4-one] | < 75 | > 316 | > 75 | > 10000 |  |  |  | 
20 | CC(C)(CO)n1nnc2cc(-c3noc(-c4ccncc4C(F)(F)F)n3)ccc21 [Compound 626, 2-methyl-2-(5-(5-(3-(trifluoro-methyl)pyridin-4-yl)-1,2,4-oxadiazol-3-yl)-1H-benzo[d] [1,2,3]triazol-1-yl)propan-1-ol] | < 75 | > 316 | < 75 |  |  |  |  | 
21 | CC(C)n1nnc2cc(-c3nc(-c4cncnc4)no3)ccc21 [Compound 249, 1-(propan-2-yl)-5-[3-(pyrimidin-5-yl)-1,2,4-oxadiazol-5-yl]-1H-1,2,3-benzotriazole] |  |  |  |  | > 75 | > 316 | < 75 | > 10000
22 | CCC1(CC)CC(=O)c2cc(-c3nc(-c4cc[nH]c4)no3)ccc2O1 [Compound 485, 6-(3-(1H-pyrrol-3-yl)-1,2,4-oxadiazol-5-yl)-2,2-diethylchroman-4-one] | > 75 | < 316 | > 75 | > 10000 |  |  |  | 
23 | CCC1(CC)CC(=O)c2cc(-c3nsc(-c4ccccc4OC)n3)ccc2O1 [Compound 222, 2,2-diethyl-6-(5-(2-methoxyphenyl)-1,2,4-thiadiazol-3-yl)chroman-4-one] |  |  |  |  | > 75 | > 316 | < 75 | < 10000
24 | CCC1(CC)CC(=O)c2cc(-c3nc(-c4cncc(F)c4)no3)ccc2O1 [Compound 551, 2,2-diethyl-6-(3-(5-fluoropyridin-3-yl)-1,2,4-oxadiazol-5-yl)chroman-4-one] | > 75 | < 316 | < 75 | < 10000 |  |  |  | 
25 | CC(C)n1nnc2cc(-c3noc(-c4ncccc4O)n3)ccc21 [Compound 602, 2-{3-[1-(propan-2-yl)-1H-1,2,3-benzo-triazol-5-yl]-1,2,4-oxadiazol-5-yl}pyridin-3-ol] | < 75 | > 316 | > 75 | > 10000 |  |  |  | 
26 | Cc1ccc(-c2noc(-c3ccc4c(c3)nnn4C3CCCC3)n2)cc1 [Compound 164, 1-cyclopentyl-5-[3-(4-methylphenyl)-1,2,4-oxadiazol-5-yl]-1H-1,2,3-benzotriazole] |  |  |  |  | < 75 | > 316 | < 75 | > 10000
